Tests used:
[1] = biological target: T1, Activin receptor type-1B (Homo sapiens, UniProt P36896); assay: Inhibition of recombinant human GST-tagged ALK4 catalytic domain expressed in baculovirus expression system by Z'-LYTE assay
T1 sequence (P36896 whole entry): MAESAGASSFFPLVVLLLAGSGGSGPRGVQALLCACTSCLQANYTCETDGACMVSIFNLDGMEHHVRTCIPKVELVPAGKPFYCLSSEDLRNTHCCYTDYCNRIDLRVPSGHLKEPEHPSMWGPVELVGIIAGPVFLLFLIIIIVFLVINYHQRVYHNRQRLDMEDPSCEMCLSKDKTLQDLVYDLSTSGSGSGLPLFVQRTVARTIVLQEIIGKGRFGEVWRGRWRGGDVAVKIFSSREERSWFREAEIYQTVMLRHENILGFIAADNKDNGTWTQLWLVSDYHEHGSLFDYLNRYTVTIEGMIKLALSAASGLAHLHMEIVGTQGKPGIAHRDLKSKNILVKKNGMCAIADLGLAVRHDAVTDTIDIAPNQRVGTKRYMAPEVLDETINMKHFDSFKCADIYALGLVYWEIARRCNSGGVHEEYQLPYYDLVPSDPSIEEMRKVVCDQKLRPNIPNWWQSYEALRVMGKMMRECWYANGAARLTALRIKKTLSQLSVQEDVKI

[2] = biological target: T2, Receptor-type tyrosine-protein kinase FLT3 (Homo sapiens, UniProt P36888); assay: Inhibition of recombinant human His-tagged cytoplasmic FLT3 expressed in baculovirus expression system by Z'-LYTE assay
T2 sequence (P36888 whole entry): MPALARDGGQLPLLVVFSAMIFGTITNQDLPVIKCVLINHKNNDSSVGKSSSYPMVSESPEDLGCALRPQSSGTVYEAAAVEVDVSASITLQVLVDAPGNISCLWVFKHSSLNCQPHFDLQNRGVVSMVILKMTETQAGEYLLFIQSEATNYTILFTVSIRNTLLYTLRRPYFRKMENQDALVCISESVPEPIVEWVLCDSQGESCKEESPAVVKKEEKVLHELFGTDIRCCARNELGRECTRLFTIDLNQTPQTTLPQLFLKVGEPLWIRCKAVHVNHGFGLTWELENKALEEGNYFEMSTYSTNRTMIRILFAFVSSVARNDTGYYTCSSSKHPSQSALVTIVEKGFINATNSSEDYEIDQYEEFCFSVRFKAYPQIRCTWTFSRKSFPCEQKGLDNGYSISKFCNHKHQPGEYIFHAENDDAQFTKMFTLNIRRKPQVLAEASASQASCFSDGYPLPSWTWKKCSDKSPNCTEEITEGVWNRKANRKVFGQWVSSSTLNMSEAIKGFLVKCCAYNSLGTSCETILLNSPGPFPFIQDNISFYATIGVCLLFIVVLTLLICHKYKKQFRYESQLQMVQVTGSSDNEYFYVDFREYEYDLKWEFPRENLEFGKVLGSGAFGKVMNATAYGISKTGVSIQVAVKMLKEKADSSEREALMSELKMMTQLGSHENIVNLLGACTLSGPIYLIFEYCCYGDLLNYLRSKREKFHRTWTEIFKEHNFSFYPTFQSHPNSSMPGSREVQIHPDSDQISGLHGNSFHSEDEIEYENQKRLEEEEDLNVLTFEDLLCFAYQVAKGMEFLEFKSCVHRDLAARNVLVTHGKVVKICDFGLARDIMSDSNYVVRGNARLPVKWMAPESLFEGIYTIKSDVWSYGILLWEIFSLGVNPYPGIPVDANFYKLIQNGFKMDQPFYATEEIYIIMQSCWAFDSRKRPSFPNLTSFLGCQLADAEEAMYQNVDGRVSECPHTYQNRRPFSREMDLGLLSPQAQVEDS

[3] = biological target: T3, Mitogen-activated protein kinase 13 (Homo sapiens, UniProt O15264); assay: Inhibition of full-length recombinant human His-tagged MAPK13 expressed in baculovirus expression system by Z'-LYTE assay
T3 sequence (O15264 whole entry): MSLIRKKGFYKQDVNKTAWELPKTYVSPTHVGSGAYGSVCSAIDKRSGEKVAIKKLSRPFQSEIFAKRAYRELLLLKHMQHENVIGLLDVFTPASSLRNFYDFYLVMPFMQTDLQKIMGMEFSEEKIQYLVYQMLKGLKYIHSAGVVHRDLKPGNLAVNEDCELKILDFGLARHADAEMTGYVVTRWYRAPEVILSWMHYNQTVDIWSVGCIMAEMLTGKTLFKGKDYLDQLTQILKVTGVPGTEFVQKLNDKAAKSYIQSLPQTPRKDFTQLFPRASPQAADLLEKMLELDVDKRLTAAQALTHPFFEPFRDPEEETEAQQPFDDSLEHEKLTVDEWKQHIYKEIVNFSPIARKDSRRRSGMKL

[4] = biological target: PAS domain-containing serine/threonine-protein kinase (Homo sapiens, UniProt Q96RG2); assay: Inhibition of recombinant human GST-tagged PASK catalytic domain expressed in baculovirus expression system by Z'-LYTE assay
PAS domain-containing serine/threonine-protein kinase, sequence (Q96RG2 whole entry, the tested form may be a part): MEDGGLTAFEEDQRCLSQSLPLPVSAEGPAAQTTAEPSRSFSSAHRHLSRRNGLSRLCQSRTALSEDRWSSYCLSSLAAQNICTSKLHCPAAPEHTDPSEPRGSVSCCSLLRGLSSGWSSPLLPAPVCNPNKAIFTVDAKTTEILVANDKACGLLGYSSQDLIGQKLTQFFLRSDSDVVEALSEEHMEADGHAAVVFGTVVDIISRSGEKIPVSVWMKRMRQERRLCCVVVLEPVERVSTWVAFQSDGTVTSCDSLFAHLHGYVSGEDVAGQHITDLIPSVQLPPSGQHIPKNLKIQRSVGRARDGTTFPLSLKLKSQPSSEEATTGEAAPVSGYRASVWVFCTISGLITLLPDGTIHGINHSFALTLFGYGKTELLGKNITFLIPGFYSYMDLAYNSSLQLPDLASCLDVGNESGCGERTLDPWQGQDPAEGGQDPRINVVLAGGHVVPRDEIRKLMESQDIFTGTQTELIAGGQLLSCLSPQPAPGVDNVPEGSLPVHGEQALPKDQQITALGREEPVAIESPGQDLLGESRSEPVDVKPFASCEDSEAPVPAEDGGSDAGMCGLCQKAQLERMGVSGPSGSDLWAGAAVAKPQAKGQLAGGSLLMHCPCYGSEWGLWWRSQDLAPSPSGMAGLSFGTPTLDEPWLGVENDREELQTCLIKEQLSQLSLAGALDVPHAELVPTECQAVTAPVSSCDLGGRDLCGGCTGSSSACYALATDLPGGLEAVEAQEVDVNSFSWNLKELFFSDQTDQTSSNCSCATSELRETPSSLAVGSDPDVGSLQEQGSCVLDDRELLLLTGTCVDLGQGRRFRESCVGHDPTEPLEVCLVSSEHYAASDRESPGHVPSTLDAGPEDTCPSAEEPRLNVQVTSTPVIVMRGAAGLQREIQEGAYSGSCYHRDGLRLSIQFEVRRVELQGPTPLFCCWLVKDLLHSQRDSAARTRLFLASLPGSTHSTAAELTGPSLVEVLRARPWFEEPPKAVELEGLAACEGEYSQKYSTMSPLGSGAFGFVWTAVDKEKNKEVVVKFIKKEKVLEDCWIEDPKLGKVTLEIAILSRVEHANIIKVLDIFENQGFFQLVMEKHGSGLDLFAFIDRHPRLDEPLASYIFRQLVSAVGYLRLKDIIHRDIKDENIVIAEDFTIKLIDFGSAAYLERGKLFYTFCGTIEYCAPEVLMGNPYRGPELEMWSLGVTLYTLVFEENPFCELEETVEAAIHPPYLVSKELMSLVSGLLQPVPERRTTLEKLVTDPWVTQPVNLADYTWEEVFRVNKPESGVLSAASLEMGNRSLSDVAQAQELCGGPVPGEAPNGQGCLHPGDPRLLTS

[5] = biological target: Serine/threonine-protein kinase N1 (Homo sapiens, UniProt Q16512); assay: Inhibition of full-length recombinant human GST-tagged PKN1 expressed in baculovirus expression system by Z'-LYTE assay
Serine/threonine-protein kinase N1, sequence (Q16512 whole entry): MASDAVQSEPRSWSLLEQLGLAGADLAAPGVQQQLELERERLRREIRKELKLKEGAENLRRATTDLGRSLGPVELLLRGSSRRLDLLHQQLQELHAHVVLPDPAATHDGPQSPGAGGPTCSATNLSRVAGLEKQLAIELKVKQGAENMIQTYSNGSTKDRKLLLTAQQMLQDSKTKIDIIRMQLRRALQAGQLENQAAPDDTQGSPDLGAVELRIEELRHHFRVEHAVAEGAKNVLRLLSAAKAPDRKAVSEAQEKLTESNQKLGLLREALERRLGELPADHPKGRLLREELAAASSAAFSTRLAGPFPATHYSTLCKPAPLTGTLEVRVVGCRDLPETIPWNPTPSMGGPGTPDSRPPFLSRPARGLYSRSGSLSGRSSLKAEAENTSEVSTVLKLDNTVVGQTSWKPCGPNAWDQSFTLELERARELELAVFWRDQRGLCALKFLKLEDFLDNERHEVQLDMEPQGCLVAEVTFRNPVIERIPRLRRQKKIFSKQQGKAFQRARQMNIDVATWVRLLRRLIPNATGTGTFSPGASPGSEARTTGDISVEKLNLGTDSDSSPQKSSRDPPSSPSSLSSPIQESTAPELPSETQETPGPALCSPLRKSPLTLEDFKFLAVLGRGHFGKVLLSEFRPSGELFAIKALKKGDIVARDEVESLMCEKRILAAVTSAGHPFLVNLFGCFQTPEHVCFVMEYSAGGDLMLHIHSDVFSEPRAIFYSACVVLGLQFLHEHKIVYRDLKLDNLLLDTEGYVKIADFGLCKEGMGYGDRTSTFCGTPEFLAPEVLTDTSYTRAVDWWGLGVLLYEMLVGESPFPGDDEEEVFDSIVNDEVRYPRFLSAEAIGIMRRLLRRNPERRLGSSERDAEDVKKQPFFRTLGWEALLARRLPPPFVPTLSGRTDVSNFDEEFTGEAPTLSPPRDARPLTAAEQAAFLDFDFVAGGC

[6] = biological target: T4, Protein kinase C zeta type (Homo sapiens, UniProt Q05513); assay: Inhibition of full-length recombinant human PRKCZ expressed in baculovirus expression system by Z'-LYTE assay
T4 sequence (Q05513 whole entry): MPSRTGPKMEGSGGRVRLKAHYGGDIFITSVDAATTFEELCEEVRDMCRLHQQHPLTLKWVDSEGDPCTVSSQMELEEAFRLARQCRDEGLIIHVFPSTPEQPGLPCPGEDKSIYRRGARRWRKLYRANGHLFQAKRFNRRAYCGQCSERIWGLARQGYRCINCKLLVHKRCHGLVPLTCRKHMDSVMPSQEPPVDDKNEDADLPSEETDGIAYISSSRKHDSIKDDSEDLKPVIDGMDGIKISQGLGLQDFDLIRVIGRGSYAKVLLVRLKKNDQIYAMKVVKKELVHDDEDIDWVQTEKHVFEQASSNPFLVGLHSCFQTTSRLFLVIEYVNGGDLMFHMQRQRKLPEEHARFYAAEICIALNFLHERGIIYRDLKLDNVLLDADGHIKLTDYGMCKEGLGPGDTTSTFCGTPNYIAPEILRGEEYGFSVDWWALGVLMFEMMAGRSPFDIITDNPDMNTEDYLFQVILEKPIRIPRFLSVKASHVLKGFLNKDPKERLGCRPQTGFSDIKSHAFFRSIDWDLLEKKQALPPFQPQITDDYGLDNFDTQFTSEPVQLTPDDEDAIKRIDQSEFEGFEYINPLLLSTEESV

[7] = biological target: Tyrosine-protein kinase SYK (Homo sapiens, UniProt P43405); assay: Inhibition of full-length recombinant human N-terminal GST-tagged cytoplasmic SYK expressed in baculovirus expression system by Z'-LYTE assay

SMILES | IC50 [1] [nM] | IC50 [2] [nM] | IC50 [3] [nM] | IC50 [4] [nM] | IC50 [5] [nM] | IC50 [6] [nM] | IC50 [7] [nM]
Cn1cc(-c2cnc3c(-c4csc(C(=O)NCC(F)(F)F)c4)cnn3c2)cn1 | 170 | < 10 | 2200 | > 100000 | 18000 | 1800 | 750
Cc1sc(C(=O)N[C@@H]2[C@H](N)CCCC2(F)F)cc1-c1cnn2cc(Cl)cnc12 | > 100000 | 580 | 160 | 1400 | 17000 | 1100 | 12000
O=C(NCC(F)(F)F)c1cc(-c2cnn3cc(-c4ccc(OCCN5CCCCC5)cc4)cnc23)cs1 | 200 | < 10 | 13000 | 37000 | 3900 | 1900 | 440
Cn1cc(-c2cnc3c(-c4csc(C(=O)N[C@@H]5CCCC[C@@H]5N)c4)cnn3c2)cn1 (racemic) | 730 | 1.9 | 39 | 1500 | 250 | 40 | 42

— ChEMBL document CHEMBL4477252, “Optimization of microtubule affinity regulating kinase (MARK) inhibitors with improved physical properties” (Bioorg Med Chem Lett, 2016)
